From patent US6620967B1, “Ketosis-treating agent” (priority 1999, dated 2003)

tested on: Wistar male rats subjected to ketosis under starvation for 48 hours; experiment: Effects at oral administration in rats subjected to ketosis under starvation; type: in vivo, rat; conditions: oral (into the stomach), 1 or 2 mmol/kg-body weight, blood from tail vein up to 240 minutes after administration
Protocol: Wistar male rats of 6 to 8 week age were subjected to ketosis under starvation for 48 hours and then used for experiment. Each of glutamine, glutamic acid, valine, isoleucine and serine was dissolved in water for injection and administered into the stomach using a gastroconductor to give a dose of 1 or 2 mmol/kg-body weight. As controls, the same quantity of water for injection was similarly administered, or each of glucose and alanine was similarly administered to give a dose of 1 or 2 mmol/kg-body weight.
Before the administration, and 30, 60, 90, 120, 180 and 240 minutes after the administration, blood was collected from a tail vein and the concentration of glucose in blood and the concentration of 3-hydroxybutyric acid usually measured for diagnosis of ketosis were measured.
FIGS. 1 to 10 show changes of the concentrations of glucose and 3-hydroxybutyric acid in blood, which are expressed as rates of change from the values before the administration (FIG. 1: water for injection, FIG. 2: 1 mmol/kg of glucose, FIG. 3: 1 mmol/kg of alanine, FIG. 4: 2 mmol/kg of alanine, FIG. 5: 1 mmol/kg of glutamine, FIG. 6: 1 mmol/kg of glutamic acid, FIG. 7: 1 mmol/kg of valine, FIG. 8: 2 mmol/kg of valine, FIG. 9: 2 mmol/kg of isoleucine, FIG. 10: 2 mmol/kg of serine). In the figures, the symbols “-∘-” and “-▴-” correspond to the rates of change of 3-hydroxybutyric acid and glucose, respectively.
Furthermore, as shown in the figures, the effect on reduction of ketone bodies disappeared within about 4 hours when glucose was used. On the other hand, when glutamine, glutamic acid, valine or isoleucine was used, the period of effecting the reduction of the concentration of ketone bodies was expected to be 24 hours or more, and therefore, they were effective as ketosis-treating agents having long duration of the effect.

`CC(C)[C@H](N)C(=O)O` [valine] was tested. Which “concentration of glucose in blood, change from value before administration” value did it give?
Its value is “without largely increasing the concentration of glucose in blood”.

What about the “concentration of ketone bodies (3-hydroxybutyric acid) in blood, change from value before administration” value of the same molecule?
The value was “reduced the concentration of ketone bodies”.

What does the source list for `CC[C@H](C)[C@H](N)C(=O)O` [isoleucine]?
concentration of glucose in blood, change from value before administration: without largely increasing the concentration of glucose in blood; concentration of ketone bodies (3-hydroxybutyric acid) in blood, change from value before administration: reduced the concentration of ketone bodies

Which “concentration of glucose in blood, change from value before administration” value does the source give for `N[C@@H](CO)C(=O)O` [serine] here?
Its value is “without largely increasing the concentration of glucose in blood”.

What about the “concentration of ketone bodies (3-hydroxybutyric acid) in blood, change from value before administration” value of the same molecule?
The value was “reduced the concentration of ketone bodies”.
